Here are results for 3 compounds from patent US12297171B2, “EP2 antagonist compounds” (Reservoir Neuroscience, Inc., priority 2021, dated 2025).

A short description of data set [1]: Human hepatocyte stability. The note with it: human hepatocytes 0.5×10^6 cells/mL, 120 minutes; for half-life at 1 μM: read-out: T1/2 (hepatic); for microsomal CLint at 1 μM: read-out: in vitro CLint (hepatic). Format: in vitro ADME. How it is done:
The tested compound was incubated in duplicate with incubation media (Williams' Medium E with 1× GlutaMAX) containing human hepatocytes (0.5×10^6 cells/mL). These incubations were carried out at a final test concentration of 1 μM over a total incubation period of 120 minutes. Samples were taken at 0, 15, 30, 60, 90 and 120 min and the reaction was terminated by addition of acetonitrile containing internal standard (100 nM alprazolam, 200 nM labetalol, 200 nM caffeine and 200 nM diclofenac). Verapamil was used as the positive control in this study. The samples were analyzed by UPLC-MS/MS to determine the concentration of the tested compound and the percentage remaining, intrinsic clearance (in vitro CLint) and half-life (t1/2) values were calculated.
(§1) Chromatographic analyses were performed on a Shimadzu UPLC apparatus (Kyoto, Japan) consisting of a gradient pump (model LC-30AD), an automatic injector (model HTC PAL System) and an on-line degasser (model DGU-20A5R). Detection was a triple quadrupole tandem mass spectrometer equipped with a turbo ion spray interface (API 4000/Triple Quad 4500/Triple Quad 5500/Triple Quad 6500). Data acquisition and integration were carried out with LC-MS software (Analyst 1.6) linked directly to the LC-MS/MS system. Chromatographic separations were achieved on a XSelect Hss T3 2.5μ (2.1×30 mm) Column. The mobile phase was 0.1% formic acid in water (A) and 0.1% formic acid in acetonitrile (B). The flow rate was 1.0 mL/min and column was maintained at 40° C.
(§2) Half-life (T1/2) data is measured in minutes, and in Table B2, in both microsomal and hepatic assays, the data is grouped into categories of: • A T1/2=1000+ • B T1/2=500 to 1000 • C T1/2=100 to 500 • D T1/2<100
(§3) In vitro clearance (CLint) data is measured in μL/min/mg prot, and in Table B2, in both microsomal and hepatic assays, the data is grouped into categories of: • A CLint<1 • B CLint=1 to 10 • C CLint=10 to 20 • D CLint=20+

The nature of data set [2]: Human liver microsome stability. The format is in vitro ADME. Conditions: human liver microsomes 0.5 mg/mL, 37° C., 60 minutes; for half-life at 2 μM: read-out: T1/2 (microsomal); for microsomal CLint at 2 μM: read-out: in vitro CLint (microsomal). How it is done:
The tested compound was incubated in duplicate with human liver microsomes (0.5 mg/mL) at 37° C. These incubations were carried out at a final test article concentration of 2 μM over a total incubation period of 60 minutes. Samples were taken at 0, 15, 30, 45 and 60 min and the reaction terminated by addition of 4 volumes of acetonitrile containing internal standard (100 nM alprazolam, 200 nM imipramine, 200 nM labetalol and 2 μM ketoprofen). Diclofenac was used as a positive control in this study. The samples were analyzed by UPLC-MS/MS to determine the concentration of the test compound and the percent remaining, intrinsic clearance (in vitro CLint) and half-life (t1/2) values were calculated.
as §1, §2, §3

The target of data set [3] is T1, EP2 receptor (Homo sapiens, UniProt P43116).
T1 construct: expressed in transfected cells; host or cells: CHO-K1 cells (ATCC), transiently transfected with FuGENE 6
T1 sequence (P43116 whole entry): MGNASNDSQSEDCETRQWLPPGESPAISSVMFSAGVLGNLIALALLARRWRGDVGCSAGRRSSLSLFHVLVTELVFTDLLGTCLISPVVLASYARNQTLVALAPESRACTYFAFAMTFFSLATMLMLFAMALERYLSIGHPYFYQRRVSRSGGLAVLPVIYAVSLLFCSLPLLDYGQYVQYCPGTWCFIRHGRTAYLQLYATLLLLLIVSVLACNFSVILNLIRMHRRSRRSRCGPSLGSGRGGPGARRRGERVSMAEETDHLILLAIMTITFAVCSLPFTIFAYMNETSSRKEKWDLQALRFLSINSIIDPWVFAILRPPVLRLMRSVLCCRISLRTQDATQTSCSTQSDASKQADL
The data set is described as follows: EP2 potency assay (cAMP TR-FRET, LANCE Ultra cAMP kit, antagonism of prostaglandin E2 at EC80). Format: cell-based. Conditions: CHO-K1 cells transfected with EP2 receptor. How it is done: Compound potency was measured using a cAMP TR-FRET assay.
CHO-K1 cells (ATCC) were seeded at a density of 9.75×10^5 in 6 cm plates, and then on the following day cell media was changed to Opti-Mem I reduced serum media (Gibco), and transfected with a plasmid for expression of the EP2 receptor (the target receptor of interest), using the FuGENE 6 Transfection reagent (Promega). After 6 hours incubation, the cell media was replaced with F12 medium supplemented with 10% FBS and 100 U/ml Pen-Strep. 24 hours after transfection, cells were harvested and seeded at a density of 3000 cells/well in a 384 well plate to perform the cAMP assay, using the LANCE Ultra cAMP assay kit (PerkinElmer).
For each test compound of interest, 10 nl/well of serially diluted test compound was added to each well, resulting in a range of 10 serially diluted compound concentrations from 10000 nM to 0.038 nM, with duplicate wells for each concentration. Plates were then centrifuged at 1000 rpm for 1 min, agitated at 600 rpm at R.T. for 2 min, and incubated at 25° C. for 5 min. The reference agonist, prostaglandin E2 (MCE), was added to each well at the appropriate concentration to reach its EC80 value. Plates were then centrifuged at 1000 rpm for 1 min, agitated at 600 rpm at R.T. for 2 min, and incubated at 25° C. for 30 min.
To measure levels of cAMP, 5 μl/well of Eu-cAMP working solution and 5 μl/well of Ulight-anti-cAMP working solution were added to each well, and plate was centrifuged at 1000 rpm for 1 min, agitated at 600 rpm at R.T. for 2 min, and incubated at 25° C. for 15 min. Levels of TR-FRET fluorescence were measured in each well using an EnVision microplate reader (excitation wavelength=337 nm and emission wavelength=615 and 665 nm). A dose-response curve was prepared by plotting percent inhibition for each compound concentration, and then IC50 was calculated by fitting a curve to the plotted values and extrapolating the IC50 concentration.
Potency data is grouped into categories of AA (IC50<100 nM); A (IC50=100 to 500 nM); B (IC50=500 nM to 1 μM); C (IC50=1 μM to 5 μM); and D (IC50>5 μM).

Bounds are passed on as bounds.

As for `COc1ccc(C(=O)N2CCC(COc3ccc(-c4ccc(C#N)cc4)cc3)(C(=O)NS(C)(=O)=O)C2)cc1` (centres unmarked) [Compound 4-19, 3-(((4′-cyano-[1,1′-biphenyl]-4-yl)oxy)methyl)-1-(4-methoxybenzoyl)-N-(methylsulfonyl)pyrrolidine-3-carboxamide], in data set [1], the half-life at 1 μM was > 16.7 h and the microsomal CLint at 1 μM is < 1 µL/min/mg. Moreover, in data set [2], the half-life at 2 μM is > 16.7 h and the microsomal CLint at 2 μM was < 1 µL/min/mg. For the same compound, the concentration for half-maximal inhibition (IC50) in data set [3] is < 100 nM.
`COc1ccc(C(=O)N2CCC(COc3ccc(-c4ccc(C#N)cc4)cc3)(C(=O)NS(=O)(=O)C(F)(F)F)C2)cc1` (centres unmarked) [Compound 4-24, 3-[({4′-cyano-[1,1′-biphenyl]-4-yl}oxy)methyl]-1-(4-methoxybenzoyl)-N-trifluoromethanesulfonylpyrrolidine-3-carboxamide]: in data set [1], the half-life at 1 μM lay in the range of 8.33 to 16.7 h and the microsomal CLint at 1 μM lay in the range of 1 to 10 µL/min/mg. Further, in data set [2], the half-life at 2 μM was in the range of 1.67 to 8.33 h and the microsomal CLint at 2 μM was in the range of 1 to 10 µL/min/mg. Further, the IC50 in data set [3] was 100 to 500 nM.
`COc1ccc(C(=O)N2CCC(COc3ccc(-c4ccc(C#N)cc4)cc3)(C(=O)O)C2)cc1` (centres unmarked) [Ref, reference compound]: in data set [1], the half-life at 1 μM is 1.67 to 8.33 h and the microsomal CLint at 1 μM was in the range of 1 to 10 µL/min/mg. Also, in data set [2], the half-life at 2 μM was 8.33 to 16.7 h and the microsomal CLint at 2 μM lay within 1 to 10 µL/min/mg.

For orientation: IC50 means the midpoint of a concentration-inhibition curve. Lower therefore signals greater potency.
